Counter-ions that a name gives are not always drawn. Like-named read-outs stand apart in the source and are kept apart here.
Key:
Assay in all cases: Virus pre-incubation, plaque formation in TMPRSS cells
Assay type in all cases: cell-based
SARS-CoV-2 variant alpha = conditions: Severe acute respiratory syndrome coronavirus 2, 2 h; 5 mM, 120 min incubation
SARS-CoV-2 variant beta = conditions: Severe acute respiratory syndrome coronavirus 2, 2 h; 5 mM, 120 min incubation
SARS-CoV-2 variant gamma = conditions: Severe acute respiratory syndrome coronavirus 2, 2 h; 5 mM, 120 min incubation
SARS-CoV-2 Delta variant = conditions: 10 mM; for inhibition at 10000 µM: read-out: inhibition / inactivation

In the case of NCCS [cysteamine HCl], the inhibition at 5000 µM (SARS-CoV-2 variant alpha) was 85 to 95%, the inhibition at 5000 µM (SARS-CoV-2 variant beta) was 85 to 95% and the inhibition at 5000 µM (SARS-CoV-2 variant gamma) was 85 to 95%. For the same compound, the inhibition at 10000 µM (SARS-CoV-2 Delta variant; Severe acute respiratory syndrome coronavirus 2, 2 h, 120 min incubation) was 100% and the inhibition at 10000 µM (SARS-CoV-2 Delta variant; Severe acute respiratory syndrome coronavirus 2, 15 min incubation, sustained through 90 minutes) was 85%.

2-aminoethanethiol [cysteamine] gave an inhibition / inactivation (SARS-CoV-2 Delta variant; 15 min incubation, sustained through 90 minutes) of 85% and an inhibition / inactivation (SARS-CoV-2 Delta variant; 120 min incubation) of 100%.

— US12527753B2, “Cysteamine for the treatment, mitigation and prevention of coronaviral, e.g., SARS-CoV-2, infections” (The Regents of the University of Michigan, priority 2020, dated 2026)
